Data taken from the NIST ThermoML archive (doi:10.1021/je0301040).

Assay: xn = mol fraction of the nth substance listed

FC(Cl)(Cl)Cl [trichlorofluoromethane] + FC(F)Cl
Details | mass density [kg/m3]
298.15 K, 27634 kPa, Liquid, Pycnometric method, x1 = 0.8336 | 1504
298.15 K, 35295 kPa, Liquid, Pycnometric method, x1 = 0.8336 | 1518.86
298.15 K, 42224 kPa, Liquid, Pycnometric method, x1 = 0.8336 | 1531.13
298.15 K, 56475 kPa, Liquid, Pycnometric method, x1 = 0.8336 | 1554.44
298.15 K, 67870 kPa, Liquid, Pycnometric method, x1 = 0.8336 | 1570.81
305.99 K, 2209.4 kPa, Liquid, isochoric method, x1 = 0.832 | 1419.96
305.99 K, 2209.7 kPa, Liquid, isochoric method, x1 = 0.832 | 1419.96
308.99 K, 4508.6 kPa, Liquid, isochoric method, x1 = 0.832 | 1419.67
311.99 K, 6798.4 kPa, Liquid, isochoric method, x1 = 0.832 | 1419.39
311.99 K, 6800.1 kPa, Liquid, isochoric method, x1 = 0.832 | 1419.39
319.98 K, 1419.4 kPa, Liquid, Pycnometric method, x1 = 0.8336 | 1381.39
319.98 K, 2419.9 kPa, Liquid, Pycnometric method, x1 = 0.8336 | 1385.12
319.99 K, 690.7 kPa, Liquid, Pycnometric method, x1 = 0.8336 | 1378.66
319.99 K, 1087.6 kPa, Liquid, Pycnometric method, x1 = 0.8336 | 1380.16
319.99 K, 1721.1 kPa, Liquid, Pycnometric method, x1 = 0.8336 | 1382.53
319.99 K, 2054.4 kPa, Liquid, Pycnometric method, x1 = 0.8336 | 1383.74
319.99 K, 2726 kPa, Liquid, Pycnometric method, x1 = 0.8336 | 1386.19
319.99 K, 3165.8 kPa, Liquid, Pycnometric method, x1 = 0.8336 | 1387.81
319.99 K, 3805.2 kPa, Liquid, Pycnometric method, x1 = 0.8336 | 1390.08
319.99 K, 7368.4 kPa, Liquid, Pycnometric method, x1 = 0.8336 | 1402.12
319.99 K, 13993 kPa, Liquid, Pycnometric method, x1 = 0.8336 | 1422.16
319.99 K, 20936 kPa, Liquid, Pycnometric method, x1 = 0.8336 | 1440.83
319.99 K, 27630 kPa, Liquid, Pycnometric method, x1 = 0.8336 | 1456.91
319.99 K, 35180 kPa, Liquid, Pycnometric method, x1 = 0.8336 | 1473.5
319.99 K, 42218 kPa, Liquid, Pycnometric method, x1 = 0.8336 | 1486.74
319.99 K, 49603 kPa, Liquid, Pycnometric method, x1 = 0.8336 | 1501.44
319.99 K, 56549 kPa, Liquid, Pycnometric method, x1 = 0.8336 | 1513.51
319.99 K, 62595 kPa, Liquid, Pycnometric method, x1 = 0.8336 | 1523.41
319.99 K, 66514 kPa, Liquid, Pycnometric method, x1 = 0.8336 | 1534.42
325.99 K, 1939.3 kPa, Liquid, isochoric method, x1 = 0.832 | 1362.85
328.99 K, 3911.9 kPa, Liquid, isochoric method, x1 = 0.832 | 1362.59
331.99 K, 5879.8 kPa, Liquid, isochoric method, x1 = 0.832 | 1362.33
331.99 K, 5890.5 kPa, Liquid, isochoric method, x1 = 0.832 | 1362.33
349.98 K, 353.7 kPa, Gas, isochoric method, x1 = 0.832 | 131.816
349.98 K, 1087.3 kPa, Liquid, Pycnometric method, x1 = 0.8336 | 1291.23
349.98 K, 1418.4 kPa, Liquid, Pycnometric method, x1 = 0.8336 | 1293.05
349.98 K, 1769.1 kPa, Liquid, Pycnometric method, x1 = 0.8336 | 1294.97
349.98 K, 2081.3 kPa, Liquid, Pycnometric method, x1 = 0.8336 | 1296.63
349.98 K, 2408.9 kPa, Liquid, Pycnometric method, x1 = 0.8336 | 1298.31
349.98 K, 2747.4 kPa, Liquid, Pycnometric method, x1 = 0.8336 | 1300.08
349.98 K, 3091.9 kPa, Liquid, Pycnometric method, x1 = 0.8336 | 1301.88
349.98 K, 7457.3 kPa, Liquid, Pycnometric method, x1 = 0.8336 | 1322.34
349.98 K, 14287 kPa, Liquid, Pycnometric method, x1 = 0.8336 | 1349.36
349.98 K, 20907 kPa, Liquid, Pycnometric method, x1 = 0.8336 | 1371.66
349.98 K, 35596 kPa, Liquid, Pycnometric method, x1 = 0.8336 | 1412.26
349.98 K, 42532 kPa, Liquid, Pycnometric method, x1 = 0.8336 | 1428.61
349.98 K, 49571 kPa, Liquid, Pycnometric method, x1 = 0.8336 | 1443.89
349.98 K, 56566 kPa, Liquid, Pycnometric method, x1 = 0.8336 | 1457.8
349.98 K, 62677 kPa, Liquid, Pycnometric method, x1 = 0.8336 | 1469.23
349.99 K, 3577.6 kPa, Liquid, Pycnometric method, x1 = 0.8336 | 1304.32
349.99 K, 27703 kPa, Liquid, Pycnometric method, x1 = 0.8336 | 1391.72
349.99 K, 68231 kPa, Liquid, Pycnometric method, x1 = 0.8336 | 1479.1
351.98 K, 3607.1 kPa, Liquid, isochoric method, x1 = 0.832 | 1298.78
354.98 K, 5239.3 kPa, Liquid, isochoric method, x1 = 0.832 | 1298.54
357.98 K, 6868 kPa, Liquid, isochoric method, x1 = 0.832 | 1298.31
357.98 K, 6868.5 kPa, Liquid, isochoric method, x1 = 0.832 | 1298.31
357.98 K, 6872.5 kPa, Liquid, isochoric method, x1 = 0.832 | 1298.31
357.98 K, 6876.5 kPa, Liquid, isochoric method, x1 = 0.832 | 1298.31
374.97 K, 140.1 kPa, Fluid (supercritical or subcritical phases), Burnett expansion method, x1 = 0.832 | 5.9076
374.97 K, 155.55 kPa, Fluid (supercritical or subcritical phases), Burnett expansion method, x1 = 0.832 | 6.5788
374.97 K, 572.06 kPa, Fluid (supercritical or subcritical phases), Burnett expansion method, x1 = 0.832 | 25.934
374.97 K, 705.75 kPa, Fluid (supercritical or subcritical phases), Burnett expansion method, x1 = 0.832 | 32.8139
374.97 K, 712.23 kPa, Fluid (supercritical or subcritical phases), Burnett expansion method, x1 = 0.832 | 33.1519
374.97 K, 775.25 kPa, Fluid (supercritical or subcritical phases), Burnett expansion method, x1 = 0.832 | 36.5414
374.97 K, 2140.4 kPa, Liquid, Pycnometric method, x1 = 0.8336 | 1209.34
374.97 K, 2454.5 kPa, Liquid, Pycnometric method, x1 = 0.8336 | 1211.8
374.97 K, 2781.1 kPa, Liquid, Pycnometric method, x1 = 0.8336 | 1214.3
